Measurements published in patent US6113896A, “Pharmaceutical compositions containing ecotin and homologs thereof” (priority 1994, dated 2000).

Experiments:
human FXIIa = assay: Equilibrium inhibition constant with Factor XIIa; type: biochemical; conditions: apparent value, 0.5 mM S2302
Description: (§1) Determination of Equilibrium Inhibition Constants Apparent Ki values (Ki *) for the inhibition of the enzymes tested by ecotin and mutants were measured as follows. All reactions were performed at 25° C. Stock solutions of trypsin were quantitated by active site burst titration with MUGB as previously described (Jameson, G. W. et al., Biochem. J. 131:107-117 [1973]) using a Fluoroskan II plate reader at excitation wavelength of 355 nm and emission wavelength of 460 nm. Data was collected on a Macintosh SE20 using either Delta Soft II Fl v3.31 software (BioMetallics). Active site titrated trypsin was then used to quantitate ecotin active sites using BAPA as the substrate; a stoichiometry of 1:1 was assumed (Chung, C. H. et al., supra). Factor Xa, Factor XIIa, plasma kallikrein, or HLE were then quantitated by active site titration using ecotin as a standard, again assuming 1:1 stoichiometry. In addition, the concentration of HLE was quantitated by methods previously described using a calibrated stock of α1 -proteinase inhibitor to titrate the HLE active sites (Beatty, K. et al., J. Biol. Chem. 255:3931-3934 [1980]); the same HLE active site concentration was determined using both ecotin and α1 -proteinase inhibitor. […]

normal human plasma = assay: Prothrombin time (PT) clotting assay; type: biochemical; conditions: initiation by TF
Description: Coagulation assays and Prolongation of Clotting Times Clotting times were performed using the ACL 300 Research Coagulation Analyzer. For the prothrombin time (PT) assays, the incubation time was set at 120 sec and acquisition time at 120 to 600 sec depending on the expected outcome of the assay. Membranes from 293 cells expressing TF (Paborsky, L. R. et al., Biochemistry 28:8072-8077 [1989]) were premixed with CaCl2. The sample (plasma and inhibitor) and reagent (CaCl2 /TF) were automatically mixed together after a 2 min incubation at 37° C. The clotting time was determined by optical assessment. The total incubation time of inhibitor with plasma before addition of CaCl2 /TF was ~5 min. Final concentrations were 78 nM to 7.8 μM ecotin, 3.7 nM TF (0.9 μg/ml by protein content), 22.5 mM CaCl2, and 50% plasma in a total volume of 160 μl.

[1] = target: HLE (human leukocyte elastase); assay: Equilibrium inhibition constant with HLE; type: biochemical; conditions: apparent value, 0.08 mM MeOSuc-Ala-Ala-Pro-Val-MCA
Description: as §1

human plasma kallikrein = assay: Equilibrium inhibition constant with plasma kallikrein; type: biochemical
Description: as §1

FXa = FXa association rate constant; type: biochemical, human
Description: Determination of FXa association rate constants The association rate of ecotin with FXa was determined as follows. At reference time zero, ecotin (7 nM final concentration) was added to FXa (5 nM final concentration) and TNCT buffer in a total volume of 3.0 ml. Immediately thereafter, 150 μl aliquots were removed at intervals over a period of 10 min and added to microtiter wells containing 50 μl 5 mM Spectrozyme fXa. The absorbance of the wells was monitored at 405 nm. Initial rates were determined for each well using the initial linear portion of each data set. The concentration of free enzyme versus time was plotted and the curves fitted to equation 4; values for kon were determined by nonlinear regression analysis.
The rate of association of a reversible inhibitor with enzyme is given by equation 2: [formula] Since measurements were made during the initial phase of the reaction, where dissociation of the E·I complex is negligible, the second term of equation 2 can be ignored. Therefore the rate of association is given by equation 3: [formula] […] The association rate constant for ecotin with FXa was determined by measuring free enzyme as a function of time and fitting the data to equation (4) by nonlinear regression analysis. A value for kon =(1.35±0.08)×10^6 M^-1 s^-1 was calculated for ecotin with FXa (FIG. 4A); kon values for ecotin mutants are shown in Table I.

Substance: Ecotin: E. coli periplasmic protein having the 142 amino acid residue sequence reported by McGrath et al.; recombinant, P1 Met84
- Ki (human FXIIa): 0.124 ± 0.026 nM
- concentration causing 10-fold prolongation of clotting time, PT (normal human plasma): ~2 μM
- concentration causing 10-fold prolongation of clotting time, PT (normal human plasma; listed as Wild type ecotin): ~ 2 μM
- Ki [1]: 0.05 nM
- Ki (human plasma kallikrein; plasma kallikrein=1.3 nM): 0.175 ± 0.02 nM
- Ki (human plasma kallikrein; plasma kallikrein=4.3 nM): 0.151 ± 0.02 nM
- time for complete inhibition of FXa (FXa; ca. 500 nM ecotin, maximum FXa concentration in blood ca. 200 nM): approximately 7.4 sec
- association rate constant (kon) with FXa (FXa; full power of ten printed): 1.35e+06 M⁻¹ s⁻¹
